The source of these data is patent US6589938B2, “Use of angiotensin I derivatives as an agent for the treatment and prevention of infarction-related cardiac injuries and disorders” (National University of Singapore, priority 2001, dated 2003).

This experiment concerns experimentally-infarcted rats. Put plainly: Infarct scar area and transmurality after coronary occlusion and reperfusion in rats. The note with it: for Transmurality, Treated: infarct scar area divided by infarct area; for Transmurality, Treated / Infarct Scar Area, Treated: mean ± SEM, 7 rats; for Infarct Scar Area, Treated: left ventricle. The experiment is classed as in vivo, Sprague Dawley rats. The procedure: The experimental protocol for induction of cardiac infarction by coronary occlusion and reperfusion in rats was carried out as described by Oh et al. (10). Briefly, each rat was anaesthetized with 7% w/v chloral hydrate (0.4 g/kg, i.p.). Each anaesthetised animal was intubated and ventilated with a rodent ventilator. Under a dissecting microscope, a left thoracotomy was performed in the fourth intercostal space, and the pericardium open. The left coronary artery was encircled with a curved needle and a silk suture. The left coronary artery was ligated for 45 minutes, followed by reperfusion. In sham-operated animals, the left coronary artery was not ligated. The chest was closed in layers and the pneumothorax evacuated.
Following the surgery, each animal was placed in a cage. The animals had access to water and rat chow ad libitum. The animals were randomly divided into the control group and treatment group. Each group consisted of 7 animals. The treatment group was orally administered 381 nmoles/kg/day of des-Asp-angiotensin I (dissolved in 1 ml water) for 14 days. The control group was similarly administered an equivalent volume of water. The experiment was repeated with the following doses of des-Asp-angiotensin I: 762, 1524, and […] nmoles/kg/day.
On the fourteenth day following surgery, animals were anaesthetised as before. Rats were ventilated as before and the thorax was opened. A polyethylene catheter (PE 200) was introduced into the left ventricle (via the left atrial appendage) and another into the descending aorta retrogradely. The heart was arrested with 2 ml injection of saturated KCl solution into the right atrium. After aortic perfusion with heparinized saline (10,000 units/L) for 3 minutes to wash out the blood, the myocardium was perfused retrogradely from the aorta with 4% phosphate-buffered paraformaldehyde at a constant pressure of 60 mm Hg for 20 minutes. The right atrium and pulmonary artery were opened to decompress the right ventricle during fixation. The left ventricle intracavity pressure was maintained at 10 mm Hg by use of the cathether introduced via the left atrial appendage.
After hardening, the heart was excised and postfixed in 4% paraformaldehyde for 24 hours. Following postfixing, the atria and adhensions were carefully dissected away and the right and left ventricles were separated, the interventricular septum being included with the left ventricle. The left ventricle was processed for paraffin embedment. Transverse serial sections of 40 μm thick were cut from the apex of the ventricle to its base. Every section at 1 mm intervals was mounted and stained with Milligan's trichrome. The infracted tissue (infarct scar) was stained blue. Two sections, taken at 5 and 6 mm, respectively, from the apex of each ventricle were used for morphometric determination of the infarct scar area and transmurality. The morphometry system consisted of a BX40 light microscope (Olympus, Japan) fitted with a KYF55B colour video camera (JVC, Japan) and a Pentium 166 MHz/MKX microcomputer (Datamini, Singapore) installed with an image Pro Plus 3.0 System (Media Cybernetics, USA) for Windows 95™. The infarct scar area, infarct area (which measured the scar and the surrounding surviving ventricular tissue) were determined in mm2. Transmurality is equal to the infarct scar area divided by infarct area.
The results of the study are summarized in Table 2 Data were expressed as mean±SEM. Significant differences were determined by one way ANOVA and post hoc Newman Kleuf test. The accepted level of significance was p<0.05. […] The effect was dose dependent and significant anti-infarction action was brought about by an oral dose of 1524 nmoles/kg/day.

Setting [1] is: 381 nmole/kg/day orally for 14 days.
Setting [2] is: 762 nmole/kg/day orally for 14 days.
Setting [3] is: 1524 nmole/kg/day orally for 14 days, * p < 0.05 vs Control.
The mark [4] stands for this setting: 3096 nmole/kg/day orally for 14 days, * p < 0.05 vs Control.

For the substance “Des-Aspartate angiotensin I [des-Asp-angiotensin I]”, the “Transmurality, Treated” value by setting is: under setting [1], 32.93 ± 1.94%; under setting [2], 33.70 ± 3.40%; under setting [3], 24.67 ± 2.37* %; under setting [4], 31.26 ± 1.53* %. Moreover, the “Infarct Scar Area, Treated” value under setting [1] came to 5.85 ± 0.25 mm^2; the “Infarct Scar Area, Treated” value under setting [2] was found to be 5.60 ± 0.30 mm^2; the “Infarct Scar Area, Treated” value under setting [3] is given as 5.11 ± 0.54* mm^2; the “Infarct Scar Area, Treated” value under setting [4] is given as 5.86 ± 0.20* mm^2. In addition, under “experimentally-induced myocardial infarcted rats, oral, 14 days”, the “attenuating the infarct size area and transmurality” value is “effective agent”. In addition, the “oral dose that brought about significant anti-infarction action” value (oral, 14 days, p<0.05, one way ANOVA) stood at 1524 nmol/kg/day.
